The test system of assay [1] is H1975 (KRAS wild type human lung adenocarcinoma cell line). The assay can be described thus: KRAS 3D-Cell Proliferation Assay, H1975 (Example 503). Format: cell-based. The note with it: Homo sapiens, NCI-H1975, 168 h, H1975 3D culture, 7 days, CellTiter-Glo 3D; read-out: Prolif H1975 3D ATP IC50. As for the experimental part:
(§1) Example 503: KRAS 3D-Cell Proliferation Assays. Cellular potencies of compounds are assessed by evaluating inhibition of proliferation in 3D cultures of homozygous mutant KRAS G12D human pancreatic cell lines (AsPC-1 and HPAC) as compared to a KRAS wild type human lung adenocarcinoma cell line (PC-9 and/or H1975). Cells are seeded into 384-well black round-bottom, ultra-low attachment assay plates in 50 uL cell growth medium (RPMI-1640 with 10% fetal bovine serum and 2 mM L-glutamine). After overnight incubation at 37° C. and 5% CO2, compounds solubilized in DMSO are added as dilution series to the wells in a total volume of 150 nL (0.3% DMSO final). The cells are incubated for 7 days at 37° C. and 5% CO2. Cell proliferation is quantitated by addition of 40 uL/well of CellTiter-GloÒ 3D (Promega), and the well contents are mixed 20× at high speed using liquid handling automation workstation (Bravo with 384-well head) and centrifuged at 1500 rpm for 2 minutes to eliminate bubbles. This reagent in combination with mechanical disruption releases the cellular ATP to promote activity in a luciferase-based enzyme/substrate chemiluminescent detection system. After a 30-minute incubation under ambient conditions with shaking and an additional 10 minutes without shaking, the luminescence is read on a plate reader (e.g., EnVision [PerkinElmer]). The results are normalized to percent inhibition based on the following control samples: DMSO (0% inhibition) and 1 μM staurosporine (100% inhibition). The normalized luminescence results are plotted against compound concentration, and the data are fit to a 4-parameter Hill equation to determine the IC50 values.

Assay [2] deals with HPAC (homozygous mutant KRAS G12D human pancreatic cell line). The assay can be described thus: KRAS 3D-Cell Proliferation Assay, HPAC (Example 503). Format: cell-based. The settings on record: Homo sapiens, HPAC, 168 h, HPAC 3D culture, 7 days, CellTiter-Glo 3D; read-out: Prolif HPAC 3D ATP IC50. How it is done:
as §1
A general note: In ATP-based viability assays light output follows the ATP content of the culture.

Structures are written as SMILES.

Turning to `Cc1cc(N)c(F)c(-c2nc3c4c(nc(OC[C@@H]5CC[C@H]6COCCN65)nc4c2F)N2C[C@H]4CC[C@H](N4)[C@H]2[C@H](C)O3)c1C=C(F)F` [Compound 99, 4-(2,2-Difluorovinyl)-2-fluoro-3-((5S,5aS,6S,9R)-1-fluoro-12-(((6S,8aS)-hexahydro-1H-pyrrolo[2,1-c][1,4]oxazin-6-yl)methoxy)-5-methyl-5a,6,7,8,9,10-hexahydro-5H-4-oxa-3,10a,11,13,14-pentaaza-6,9-methanonaphtho[1,8-ab]heptalen-2-yl)-5-methylaniline], the half-maximal inhibitory concentration (IC50) – broadly, the point on the concentration scale where inhibition reaches its midpoint – stood at 5.06 µM in assay [1] and 0.04 µM in assay [2].
As for `Cc1cc(N)c(F)c(-c2nc3c4c(nc(OC[C@@H]5CC[C@H]6COCCN65)nc4c2F)N2C[C@H]4CC[C@H](N4)[C@H]2[C@H](C)O3)c1C(F)(F)C(F)(F)F` [Compound 100, 2-Fluoro-3-((5S,5aS,6S,9R)-1-fluoro-12-(((6S,8aS)-hexahydro-1H-pyrrolo[2,1-c][1,4]oxazin-6-yl)methoxy)-5-methyl-5a,6,7,8,9,10-hexahydro-5H-4-oxa-3,10a,11,13,14-pentaaza-6,9-methanonaphtho[1,8-ab]heptalen-2-yl)-5-methyl-4-(perfluoroethyl)aniline], the IC50 is 3.97 µM in assay [1] and 0.0218 µM in assay [2].
Take `Cc1cc(N)c(F)c(-c2nc3c4c(nc(OC[C@@H]5CC[C@H]6COCCN65)nc4c2F)N2C[C@H]4CC[C@H](N4)[C@H]2[C@H](C)O3)c1Cl` [Compound 101, 4-Chloro-2-fluoro-3-((5S,5aS,6S,9R)-1-fluoro-12-(((6S,8aS)-hexahydro-1H-pyrrolo[2,1-c][1,4]oxazin-6-yl)methoxy)-5-methyl-5a,6,7,8,9,10-hexahydro-5H-4-oxa-3,10a,11,13,14-pentaaza-6,9-methanonaphtho[1,8-ab]heptalen-2-yl)-5-methylaniline]: the IC50 was found to be 8.49 µM in assay [1] and 0.0415 µM in assay [2].
Turning to `Cc1cc(N)c(Cl)c(-c2nc3c4c(nc(OC[C@@H]5CC[C@H]6COCCN65)nc4c2F)N2C[C@H]4CC[C@H](N4)[C@H]2[C@H](C)O3)c1C(F)(F)F` [Compound 103, 2-Chloro-3-((5S,5aS,6S,9R)-1-fluoro-12-(((6S,8aS)-hexahydro-1H-pyrrolo[2,1-c][1,4]oxazin-6-yl)methoxy)-5-methyl-5a,6,7,8,9,10-hexahydro-5H-4-oxa-3,10a,11,13,14-pentaaza-6,9-methanonaphtho[1,8-ab]heptalen-2-yl)-5-methyl-4-(trifluoromethyl)aniline], the IC50 in assay [1] is 3.46 µM; in assay [2] it was 0.00929 µM.
With `C[C@@H]1Oc2nc(-c3[nH]c(=O)cc4ccccc34)c(F)c3nc(OC[C@@]45CCCN4C[C@H](F)C5)nc(c23)N2C[C@H]3CC[C@H](N3)[C@@H]12` [Compound 105, 1-((5S,5aS,6S,9R)-1-Fluoro-12-(((2R,7aS)-2-fluorotetrahydro-1H-pyrrolizin-7a(5H)-yl)methoxy)-5-methyl-5a,6,7,8,9,10-hexahydro-5H-4-oxa-3,10a,11,13,14-pentaaza-6,9-methanonaphtho[1,8-ab]heptalen-2-yl)isoquinolin-3(2H)-one], the values for the IC50 in assay [1] and in assay [2] were 20 µM and 2 µM, respectively.
For `C[C@@H]1Oc2nc(-c3c(C#N)c(N)c(F)c(F)c3C(F)(F)F)c(F)c3nc(OC[C@@]45CCCN4C[C@H](F)C5)nc(c23)N2C[C@H]3CC[C@H](N3)[C@@H]12` [Compound 107, 2-Amino-3,4-difluoro-6-((5S,5aS,6S,9R)-1-fluoro-12-(((2R,7aS)-2-fluorotetrahydro-1H-pyrrolizin-7a(5H)-yl)methoxy)-5-methyl-5a,6,7,8,9,10-hexahydro-5H-4-oxa-3,10a,11,13,14-pentaaza-6,9-methanonaphtho[1,8-ab]heptalen-2-yl)-5-(trifluoromethyl)benzonitrile], the IC50 in assay [1] is 4.87 µM; in assay [2], 0.0435 µM.
Consider `Cc1cc(N)c(F)c(-c2nc3c4c(nc(OC[C@@]56CCCN5C[C@H](F)C6)nc4c2F)N2C[C@H]4CC[C@H](N4)[C@H]2[C@H](C)O3)c1I` [Compound 108, 2-Fluoro-3-((5S,5aS,6S,9R)-1-fluoro-12-(((2R,7aS)-2-fluorotetrahydro-1H-pyrrolizin-7a(5H)-yl)methoxy)-5-methyl-5a,6,7,8,9,10-hexahydro-5H-4-oxa-3,10a,11,13,14-pentaaza-6,9-methanonaphtho[1,8-ab]heptalen-2-yl)-4-iodo-5-methylaniline], for which the half-maximal inhibitory concentration (IC50) came out at 0.772 µM in assay [1] and 0.00285 µM in assay [2].
For `C#Cc1c(F)ccc2cc(N)cc(-c3nc4c5c(nc(OC[C@]67CCN6CC(F)(F)C7)nc5c3F)N3C[C@H]5CC[C@H](N5)[C@H]3[C@H](C)O4)c12` [Compound 110, 4-((5S,5aS,6S,9R)-12-(((R)-3,3-Difluoro-1-azabicyclo[3.2.0]heptan-5-yl)methoxy)-1-fluoro-5-methyl-5a,6,7,8,9,10-hexahydro-5H-4-oxa-3,10a,11,13,14-pentaaza-6,9-methanonaphtho[1,8-ab]heptalen-2-yl)-5-ethynyl-6-fluoronaphthalen-2-amine], in that order: 0.587 µM and 0.00258 µM.
As to `Cc1c(F)c(N)cc(-c2nc3c4c(nc(OC[C@@H]5CC[C@H]6COCCN65)nc4c2F)N2C[C@H]4CC[C@H](N4)[C@H]2[C@H](C)O3)c1Cl` [Compound 111, 4-Chloro-2-fluoro-5-((5S,5aS,6S,9R)-1-fluoro-12-(((6S,8aS)-hexahydro-1H-pyrrolo[2,1-c][1,4]oxazin-6-yl)methoxy)-5-methyl-5a,6,7,8,9,10-hexahydro-5H-4-oxa-3,10a,11,13,14-pentaaza-6,9-methanonaphtho[1,8-ab]heptalen-2-yl)-3-methylaniline], the IC50 was 1.84 µM in assay [1] and 0.0141 µM in assay [2].
For `Cc1c(F)c(N)cc(-c2nc3c4c(nc(OC[C@@H]5CC[C@H]6COCCN65)nc4c2F)N2C[C@H]4CC[C@H](N4)[C@H]2[C@H](C)O3)c1CC(F)(F)F` [Compound 113, 2-fluoro-5-((5S,5aS,6S,9R)-1-fluoro-12-(((6S,8aS)-hexahydro-1H-pyrrolo[2,1-c][1,4]oxazin-6-yl)methoxy)-5-methyl-5a,6,7,8,9,10-hexahydro-5H-4-oxa-3,10a,11,13,14-pentaaza-6,9-methanonaphtho[1,8-ab]heptalen-2-yl)-3-methyl-4-(2,2,2-trifluoroethyl)aniline], in that order: 1.17 µM and 0.00291 µM.
For `C[C@@H]1Oc2nc(-c3cccc4ccc(N)nc34)c(F)c3nc(OC[C@@]45CCCN4C[C@H](F)C5)nc(c23)N2C[C@H]3CC[C@H](N3)[C@@H]12` [Compound 114, 8-((5S,5aS,6S,9R)-1-Fluoro-12-(((2R,7aS)-2-fluorotetrahydro-1H-pyrrolizin-7a(5H)-yl)methoxy)-5-methyl-5a,6,7,8,9,10-hexahydro-5H-4-oxa-3,10a,11,13,14-pentaaza-6,9-methanonaphtho[1,8-ab]heptalen-2-yl)quinolin-2-amine], in that order: 20 µM and 2 µM.
For `C[C@@H]1Oc2nc(-c3cc(N)cc(C(F)(F)F)c3C(F)(F)F)c(F)c3nc(OC[C@@]45CCCN4C[C@H](F)C5)nc(c23)N2C[C@H]3CC[C@H](N3)[C@@H]12` [Compound 115, 3-((5S,5aS,6S,9R)-1-fluoro-12-(((2R,7aS)-2-fluorotetrahydro-1H-pyrrolizin-7a(5H)-yl)methoxy)-5-methyl-5a,6,7,8,9,10-hexahydro-5H-4-oxa-3,10a,11,13,14-pentaaza-6,9-methanonaphtho[1,8-ab]heptalen-2-yl)-4,5-bis(trifluoromethyl)aniline], in that order: 2.71 µM and 0.0157 µM.
Regarding `C[C@@H]1Oc2nc(-c3cccc4sc(N)nc34)c(F)c3nc(OC[C@@]45CCCN4C[C@H](F)C5)nc(c23)N2C[C@H]3CC[C@H](N3)[C@@H]12` [Compound 116, 4-((5S,5aS,6S,9R)-1-fluoro-12-(((2R,7aS)-2-fluorotetrahydro-1H-pyrrolizin-7a(5H)-yl)methoxy)-5-methyl-5a,6,7,8,9,10-hexahydro-5H-4-oxa-3,10a,11,13,14-pentaaza-6,9-methanonaphtho[1,8-ab]heptalen-2-yl)benzo[d]thiazol-2-amine], the results for the IC50 in assay [1] and in assay [2] were 20 µM and 0.513 µM, respectively.
As to `C[C@@H]1Oc2nc(-c3cc(N)ccc3C(C)(C)C)c(F)c3nc(OC[C@@]45CCCN4C[C@H](F)C5)nc(c23)N2C[C@H]3CC[C@H](N3)[C@@H]12` [Compound 117, 4-(tert-butyl)-3-((5S,5aS,6S,9R)-1-fluoro-12-(((2R,7aS)-2-fluorotetrahydro-1H-pyrrolizin-7a(5H)-yl)methoxy)-5-methyl-5a,6,7,8,9,10-hexahydro-5H-4-oxa-3,10a,11,13,14-pentaaza-6,9-methanonaphtho[1,8-ab]heptalen-2-yl)aniline], the results for the concentration for half-maximal inhibition (IC50) in assay [1] and in assay [2] were 4.74 µM and 0.148 µM, respectively.

These data come from patent publication US12338256B2, “Aza-tetracyclic oxazepine compounds and uses thereof” (Genentech, Inc., priority 2022, dated 2025).
